Assay results published in ChEMBL document CHEMBL5360649, “Potential Broad-Spectrum Antimicrobial, Wound Healing, and Disinfectant Cationic Peptide Crafted from Snake Venom” (J Med Chem, 2023).
Calls of active or inactive are those of the source. The calls are words filed in the database; no cut-off is given here.

Assays:
U-937 [1] = assay: Immunomodulatory activity in human U-937 cells assessed as reduction in LPS-induced TNF-alpha expression level incubated for 24 hrs by radioimmunoprecipitation based dot-plot analysis; format: functional, cell-based; conditions: dose 5-10 µM
Pseudomonas aeruginosa [2] = assay: Antibacterial activity against patient-derived Pseudomonas aeruginosa assessed as inhibition of bacterial growth incubated for 24 hrs by CLSI protocol based microdilution method; format: functional
Klebsiella pneumoniae [3] = assay: Induction of morphological changes in carbapenem resistant Klebsiella pneumoniae ATCC BAA-1705 assessed as cellular defacement at MIC concentration incubated for 60 mins by SEM analysis; format: functional, organism-based
PBMC = assay: Effect on cell viability in human PBMC assessed as increase in cell number by measuring rise in cell proliferation percentage at 12.5 uM measured after 12 hrs by lymphocyte proliferation assay (12 hrs incubated Rvb = 478.774%); format: toxicity, cell-based
Pseudomonas aeruginosa [4] = assay: Induction of morphological changes in Pseudomonas aeruginosa assessed as membrane damage at MIC concentration incubated for 60 mins by SEM analysis; format: functional, organism-based
Staphylococcus aureus [5] = assay: Antibacterial activity against patient-derived methicillin-resistant Staphylococcus aureus assessed as inhibition of bacterial growth incubated for 24 hrs by CLSI protocol based microdilution method; format: functional
Klebsiella pneumoniae [6] = assay: Antibiofilm activity against Klebsiella pneumoniae assessed as eradication of preformed biofilm at 1 times of MIC incubated for 24 hrs by CV staining based analysis relative to control; format: functional
RAW264.7 = assay: Antiinflammatory activity in mouse RAW264.7 cells assessed as increase in TGF-beta1 expression at 10 uM incubated for 24 hrs by radioimmunoprecipitation based dot-plot analysis; format: functional, cell-based
Staphylococcus aureus [7] = assay: Induction of morphological changes in methicillin-resistant Staphylococcus aureus assessed as cellular destruction at MIC concentration incubated for 6 hrs by AFM analysis; format: functional, organism-based
Klebsiella pneumoniae [8] = assay: Antibiofilm activity against Klebsiella pneumoniae assessed as increase in dead cell proportion at MIC incubated overnight by SYTO9/PI staining based fluorescence analysis; format: functional, organism-based
Lipopolysaccharide (LPS) = assay: Displacement of BODIPY-TR-cadaverin from Escherichia coli O111:B4 Lipopolysaccharide assessed as increase in binding factor at 10 to 40 uM preincubated for 15 mins followed by BODIPY-TR-cadaverin addition and measured after 15 mins by fluorescence based analysis; conditions: dose 10-40 µM, time 30.0 min
Staphylococcus aureus [9] = assay: Antibacterial activity against methicillin-resistant Staphylococcus aureus assessed as induction of cellular damage at MIC concentration incubated for 30 mins by SYTO9/PI staining based fluorescence microscopic analysis; format: functional, organism-based
U-937 [10] = assay: Immunomodulatory activity in human U-937 cells assessed as effect on IL-6 expression level at 5 to 10 uM incubated for 24 hrs by radioimmunoprecipitation based dot-plot analysis; format: functional, cell-based; conditions: dose 5-10 µM
Staphylococcus aureus [11] = assay: Antibiofilm activity against methicillin-resistant Staphylococcus aureus assessed as increase in dead cell proportion at MIC incubated overnight by SYTO9/PI staining based fluorescence analysis; format: functional, organism-based
Klebsiella pneumoniae [12] = assay: Antibiofilm activity against Klebsiella pneumoniae assessed as biofilm clearance incubated for 24 hrs by Congo red dye based fluorescence analysis; format: functional, organism-based
Pseudomonas aeruginosa [13] = assay: Induction of morphological changes in Pseudomonas aeruginosa at MIC concentration incubated for 6 hrs by AFM analysis; format: functional, organism-based
Staphylococcus aureus [14] = assay: Induction of morphological changes in methicillin-resistant Staphylococcus aureus at MIC concentration incubated for 6 hrs by AFM analysis; format: functional, organism-based
Pseudomonas aeruginosa [15] = assay: Antibacterial activity against Pseudomonas aeruginosa assessed as inhibition of bacterial growth at 1.25 to 40 uM incubated for 8 hrs by microtiter plate reader analysis; format: functional, organism-based; conditions: dose 1.25-40 µM
Pseudomonas aeruginosa [16] = assay: Antibiofilm activity against Pseudomonas aeruginosa assessed as biofilm eradication at 1 times of MIC incubated for 24 hrs by CV staining based analysis relative to control; format: functional
Pseudomonas aeruginosa [17] = assay: Antibacterial activity against Pseudomonas aeruginosa assessed as inhibition of bacterial growth at 1.25 to 40 uM by microtiter plate reader analysis; format: functional, organism-based; conditions: dose 1.25-40 µM, time 0.5-8.5 hrs, TDE = time-dependent effect
NMDF = assay: Induction of cell migration in NMDF cells at 5 uM incubated for 24 hrs by wound healing scratch/mirgation assay; format: functional, cell-based; conditions: Mus musculus
Staphylococcus aureus [18] = assay: Antibacterial activity against methicillin resistant Staphylococcus aureus assessed as inhibition of bacterial growth at 1.25 to 40 uM by microtiter plate reader analysis; format: functional, organism-based; conditions: dose 1.25-40 µM, time 0.5-8.5 hrs, TDE = time-dependent effect
Rattus norvegicus = species on record: Rattus norvegicus; assay: Induction of wound healing in surgically-induced Albino Wistar rat wound model assessed as reduction in inflammatory activity at 10 uM measured after 11 days by H&E staining based analysis; format: functional; conditions: time 11.0 day
Pseudomonas aeruginosa [19] = assay: Antibacterial activity against Pseudomonas aeruginosa assessed as induction of cellular damage at MIC concentration incubated for 30 mins by SYTO9/PI staining based fluorescence microscopic analysis; format: functional, organism-based
Klebsiella pneumoniae [20] = assay: Antibacterial activity against carbapenem resistance Klebsiella pneumoniae ATCC BAA-1705 assessed as inhibition of bacterial growth incubated for 0.5 to 8.5 hrs by microtiter plate reader analysis; format: functional, organism-based; conditions: dose 1.25-40 µM, time 0.5-8.5 hrs
Escherichia coli [21] = assay: Antibacterial activity against Escherichia coli assessed as induction of cellular damage at MIC concentration incubated for 30 mins by SYTO9/PI staining based fluorescence microscopic analysis; format: functional, organism-based
Klebsiella pneumoniae [22] = assay: Induction of morphological changes in carbapenem resistant Klebsiella pneumoniae ATCC BAA-1705 assessed as inhibition of cell division by measuring filamented cells at MIC concentration incubated for 60 mins by SEM analysis; format: functional, organism-based
Klebsiella pneumoniae [23] = assay: Induction of morphological changes in carbapenem resistant Klebsiella pneumoniae ATCC BAA-1705 assessed as cellular destruction at MIC concentration incubated for 6 hrs by AFM analysis; format: functional, organism-based
[24] = Stability in human serum assessed as intact peptide remaining at 1 mM measured after 8 hrs by HPLC analysis; format: ADME, cell-free; conditions: read-out: Stability
Staphylococcus aureus [25] = assay: Induction of morphological changes in methicillin-resistant Staphylococcus aureus at MIC concentration incubated for 60 mins by SEM analysis; format: functional, organism-based
Cell membrane = assay: Induction of outer membrane permeabilization in Pseudomonas aeruginosa at 0.5 to 1 times of MIC incubated for 5 to 20 mins by fluorescence based NPN uptake assay; format: subcellular; conditions: time 5-20 min
Klebsiella pneumoniae [26] = assay: Antibiofilm activity against Klebsiella pneumoniae assessed as biofilm eradication at 0.5 times of MIC incubated for 24 hrs by CV staining based analysis relative to control; format: functional
Pseudomonas aeruginosa [27] = assay: Antibiofilm activity against Pseudomonas aeruginosa assessed as clearance of preformed biofilm at 0.5 times of MIC incubated for 24 hrs by CV staining based analysis relative to control; format: functional
Pseudomonas aeruginosa [28] = assay: Antibiofilm activity against Pseudomonas aeruginosa assessed as biofilm eradication at 0.5 times of MIC incubated for 24 hrs by CV staining based analysis relative to control; format: functional
Staphylococcus aureus [29] = assay: Antibacterial activity against patient-derived methicillin-resistant Staphylococcus aureus assessed as inhibition of bacterial growth at 25 to 100 uM incubated overnight by spotting assay; format: functional, organism-based; conditions: dose 25-100 µM
Escherichia coli [30] = assay: Antibacterial activity against Escherichia coli ATCC CRM-11229 assessed as inhibition of bacterial growth incubated for 24 hrs by CLSI protocol based microdilution method; format: functional
[31] = Hemolytic activity in human RBC assessed as hemolysis at 25 uM incubated for 30 mins under shaking condition by multiplate reader analysis relative to control; format: toxicity, cell-based, Erythrocyte; conditions: human red blood cells (RBC), read-out: Activity

In the case of H-FLPIIKWVKKFFWRWR-OH, the Activity (U-937 [1]) is reported as “Dose-Dependent Effect”, the MIC (Pseudomonas aeruginosa [2]) is reported as 4 µM and the Activity (Klebsiella pneumoniae [3]) is reported as “Active”. For the same substance, the Activity (PBMC) was 55.188%, the Activity (Pseudomonas aeruginosa [4]) was “Active” and the MIC (Staphylococcus aureus [5]) was 6 µM. The Activity (Klebsiella pneumoniae [6]) was about 88%, the Activity (RAW264.7) was “Active” and the Activity (Staphylococcus aureus [7]) was “Active”. The Activity (Klebsiella pneumoniae [8]) was “Active”, the Activity (Lipopolysaccharide (LPS)) was “Active” and the Activity (Staphylococcus aureus [9]) was “Active”. For the same substance, the Activity (U-937 [10]) was “Active”, the Activity (Staphylococcus aureus [11]) was “Active” and the Activity (Klebsiella pneumoniae [12]) was “Dose-Dependent Effect”. The Activity (Pseudomonas aeruginosa [13]) was “Active”, the Activity (Staphylococcus aureus [14]) was “Active” and the Activity (Pseudomonas aeruginosa [15]) was “Active”. The Activity (Pseudomonas aeruginosa [16]) was “<=72.73%”, the Activity (Pseudomonas aeruginosa [17]) was “Tde” and the Activity (NMDF) was “inactive”. The Activity (Staphylococcus aureus [18]) was “Tde”, the Activity (Rattus norvegicus) was “Active” and the Activity (Pseudomonas aeruginosa [19]) was “Active”. The Activity (Klebsiella pneumoniae [20]) was “Dose-Dependent Effect”, the Activity (Escherichia coli [21]) was “Active” and the Activity (Klebsiella pneumoniae [22]) was “Active”. For the same substance, the Activity (Klebsiella pneumoniae [23]) was “Active”, the remaining at 8 h, 1000 µM [24] was 61% and the Activity (Staphylococcus aureus [25]) was “Active”. For the same substance, the Activity (Cell membrane) was “Active”, the Activity (Klebsiella pneumoniae [26]) was about 62% and the Activity (Pseudomonas aeruginosa [27]) was about 53%. For the same substance, the Activity (Pseudomonas aeruginosa [28]) was about 50%, the Activity (Staphylococcus aureus [29]) was “Active” and the MIC (Escherichia coli [30]) was 3.5 µM. For the same substance, the hemolysis at 0.5 h, 25 µM [31] was 20.4%.
